Source: patent publication US20230257351A1, “SUBSTITUTED N-[…] HAVING P2X4 RECEPTOR ANTAGONISTIC ACTIVITY” (Bayer Aktiengesellschaft, priority 2020, published 2023)

Target: T1, human P2X4 (Homo sapiens, UniProt Q99571)
T1 construct: expressed in transfected cells
T1 sequence (Q99571 1-388): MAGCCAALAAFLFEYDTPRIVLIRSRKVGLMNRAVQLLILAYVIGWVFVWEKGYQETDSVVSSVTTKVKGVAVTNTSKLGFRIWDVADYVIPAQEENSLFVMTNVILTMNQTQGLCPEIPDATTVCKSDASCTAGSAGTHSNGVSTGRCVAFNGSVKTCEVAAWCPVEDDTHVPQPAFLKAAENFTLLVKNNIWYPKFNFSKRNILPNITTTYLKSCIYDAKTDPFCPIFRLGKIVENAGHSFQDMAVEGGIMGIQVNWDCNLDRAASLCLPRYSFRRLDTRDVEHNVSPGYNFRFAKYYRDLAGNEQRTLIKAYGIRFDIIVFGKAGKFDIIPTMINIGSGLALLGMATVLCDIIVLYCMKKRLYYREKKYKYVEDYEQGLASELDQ
Experiment: Human P2X4 HEK Cell FLIPR Assay
Format: cell-based
Settings: HEK293 stably expressing human P2X4, agonist Bz-ATP 3 μM (EC80); for IC50: read-out: Human P2X4 HEK Cells (FLIPR Assay) avg IC50
Method: Compounds were tested on a HEK293 cell line stably expressing human P2X4. Cells were cultured on poly-D-lysine-coated 384-well plates at a density of 15,000 cells/well and incubated overnight at 37° C., 5% CO2. P2X4 function was assessed by measuring intracellular calcium fluxes caused by Benzoylbenzoyl-ATP (Bz-ATP) using the calcium-chelating dye Fluo8-AM (Molecular Devices) with the Fluorescent Imaging Plate Reader Tetra (FLIPR^Tetra; Molecular Devices CA). On the day of the assay, the medium was removed and the cells were incubated for 30 min at 37° C. and 5% CO2 in 30 μl of dye buffer (Hank's balanced salt solution, 10 mM HEPES, 1.8 mM CaCl2, 1 mM MgCl2, 2 mM probenecid, 5 mM D-glucose monohydrate, 5 μM Fluo8-AM, pH=7.4). Compounds diluted in probenecid buffer (Hank's balanced salt solution, 10 mM HEPES, 1.8 mM CaCl2, 1 mM MgCl2, 2 mM probenecid, 5 mM D-glucose monohydrate, pH=7.4) at ten concentrations ranging from 25 μM to 1 nM (final concentration) were dispensed and incubated for 30 min at room temperature. […] The final assay volume was 50 μl and final DMSO concentration was 0.5%.
The fluorescence intensity reflecting intracellular calcium changes was recorded before and after Bz-ATP addition, at an excitation and emission wavelengths of 470-495 nm and 515-575 nm respectively.
The compounds were tested in triplicates and fluorescence intensity raw data normalized to the agonist control and fitted to the four-parameter logistic equation:
Y=Bottom+(Top−Bottom)/(1+10^((Log IC50−X)*HillSlope))
Assay plate acceptance was based on the signal window (S/B)[…] and the reference compound pIC50 within ±3σ the mean of historic pIC50 of the compound. Failure to meet two of the three criteria determined exclusion of the plate's results.

Row | SMILES | Human P2X4 HEK Cells (FLIPR Assay) avg Efficacy | IC50
1 | CC(=O)N(c1cccc(C(F)F)c1)c1cc(NC(=O)Cc2ccc(F)cc2Cl)ccn1 [Example 3, N-{4-[2-(2-chloro-4-fluorophenyl)acetamido]pyridin-2-yl}-N-[3-(difluoromethyl)phenyl]acetamide] | 98% | 657 nM
2 | CC(=O)N(c1cccc(C(F)(F)F)c1)c1cc(NC(=O)Cc2ccccc2Cl)ccn1 [Example 6, N-{4-[2-(2-chlorophenyl)acetamido]pyridin-2-yl}-N-[3-(trifluoromethyl)phenyl]acetamide] | 97% | 689 nM
3 | CC(=O)N(c1cccc(C(F)(F)F)c1)c1cc(NC(=O)Cc2ccc(F)cc2Cl)ccn1 [Example 7, N-{4-[2-(2-chloro-4-fluorophenyl)acetamido]pyridin-2-yl}-N-[3-(trifluoromethyl)phenyl]acetamide] | 97% | 846 nM
4 | CC(=O)N(c1cccc(C(F)(F)F)c1)c1cc(NC(=O)Cc2cccc(F)c2Cl)ccn1 [Example 8, N-{4-[2-(2-chloro-3-fluorophenyl)acetamido]pyridin-2-yl}-N-[3-(trifluoromethyl)phenyl]acetamide] | 97% | 681 nM
5 | CC(=O)N(c1cccc(C(F)(F)F)c1)c1cc(NC(=O)Cc2c(Cl)cccc2Cl)ccn1 [Example 9, N-{4-[2-(2,6-dichlorophenyl)acetamido]pyridin-2-yl}-N-[3-(trifluoromethyl)phenyl]acetamide] | 99% | 749 nM
6 | CC(=O)N(c1ccc(C#N)c(C(F)(F)F)c1)c1cc(NC(=O)Cc2ccccc2Cl)ccn1 [Example 10, N-{4-[2-(2-chlorophenyl)acetamido]pyridin-2-yl}-N-[4-cyano-3-(trifluoromethyl)phenyl]acetamide] | 94% | –
7 | CC(=O)N(c1ccc(C#N)c(C(F)(F)F)c1)c1cc(NC(=O)Cc2cccc(F)c2Cl)ccn1 [Example 11, N-{4-[2-(2-chloro-3-fluorophenyl)acetamido]pyridin-2-yl}-N-[4-cyano-3-(trifluoromethyl)phenyl]acetamide] | 100% | –
8 | CC(=O)N(c1ccc(C#N)c(C(F)(F)F)c1)c1cc(NC(=O)Cc2c(Cl)cccc2Cl)ccn1 [Example 12, N-[4-cyano-3-(trifluoromethyl)phenyl]-N-{4-[2-(2,6-dichlorophenyl)acetamido]pyridin-2-yl}acetamide] | 101% | –
9 | CC(=O)N(c1ccc(Cl)c(C#N)c1)c1cc(NC(=O)Cc2ccccc2Cl)ccn1 [Example 16, N-(4-chloro-3-cyanophenyl)-N-{4-[2-(2-chlorophenyl)acetamido]pyridin-2-yl}acetamide] | 95% | 388 nM
10 | CC(=O)N(c1ccc(Cl)c(C#N)c1)c1cc(NC(=O)Cc2ccc(F)cc2Cl)ccn1 [Example 17, N-(4-chloro-3-cyanophenyl)-N-{4-[2-(2-chloro-4-fluorophenyl)acetamido]pyridin-2-yl)acetamide] | 99% | 638 nM
11 | CC(=O)N(c1ccc(Cl)c(C#N)c1)c1cc(NC(=O)Cc2cccc(F)c2Cl)ccn1 [Example 18, N-(4-chloro-3-cyanophenyl)-N-{4-[2-(2-chloro-3-fluorophenyl)acetamido]pyridin-2-yl}acetamide] | 99% | 437 nM
12 | CC(=O)N(c1ccc(Cl)c(C#N)c1)c1cc(NC(=O)Cc2c(Cl)cccc2Cl)ccn1 [Example 19, N-(4-chloro-3-cyanophenyl)-N-{4-[2-(2,6-dichlorophenyl)acetamido]pyridin-2-yl}acetamide] | 103% | 542 nM
13 | CC(=O)N(c1ccc(F)c(C#N)c1)c1cc(NC(=O)Cc2cccc(C(F)(F)F)c2Cl)ccn1 [Example 20, N-(4-{2-[2-chloro-3-(trifluoromethyl)phenyl]acetamido}pyridin-2-yl)-N-(3-cyano-4-fluorophenyl)acetamide] | 99% | 748 nM
14 | CC(=O)N(c1ccccc1)c1cc(NC(=O)Cc2c(F)cccc2Cl)ccn1 [Example 28, N-{4-[2-(2-chloro-6-fluorophenyl)acetamido]pyridin-2-yl}-N-phenylacetamide] | 91% | 777 nM
15 | CC(=O)N(c1ccc(F)cc1)c1cc(NC(=O)Cc2ccc(Cl)cc2C(F)(F)F)ccn1 [Example 31, N-(4-{2-[4-chloro-2-(trifluoromethyl)phenyl]acetamido}pyridin-2-yl)-N-(4-fluorophenyl)acetamide] | 100% | 909 nM
16 | CC(=O)N(c1ccc(F)cc1)c1cc(NC(=O)Cc2cccc(C(F)(F)F)c2Cl)ccn1 [Example 35, N-(4-{2-[2-chloro-3-(trifluoromethyl)phenyl]acetamido}pyridin-2-yl)-N-(4-fluorophenyl)acetamide] | 99% | 938 nM
17 | CC(=O)N(c1ccc(C)cc1)c1cc(NC(=O)Cc2ccccc2Cl)ccn1 [Example 43, N-{4-[2-(2-chlorophenyl)acetamido]pyridin-2-yl}-N-(4-methylphenyl)acetamide] | 100% | 406 nM
18 | CC(=O)N(c1ccc(C)cc1)c1cc(NC(=O)Cc2ccc(F)cc2Cl)ccn1 [Example 44, N-{4-[2-(2-chloro-4-fluorophenyl)acetamido]pyridin-2-yl}-N-(4-methylphenyl)acetamide] | 99% | 607 nM
19 | CC(=O)N(c1ccc(C)cc1)c1cc(NC(=O)Cc2c(Cl)cccc2Cl)ccn1 [Example 46, N-{4-[2-(2,6-dichlorophenyl)acetamido]pyridin-2-yl}-N-(4-methylphenyl)acetamide] | 103% | 551 nM
20 | CC(=O)N(c1ccc(OC(F)F)cc1)c1cc(NC(=O)Cc2ccccc2Cl)ccn1 [Example 47, N-{4-[2-(2-chlorophenyl)acetamido]pyridin-2-yl}-N-[4-(difluoromethoxy)phenyl]acetamide] | 98% | 519 nM
21 | CC(=O)N(c1ccc(OC(F)F)cc1)c1cc(NC(=O)Cc2cccc(F)c2Cl)ccn1 [Example 48, N-{4-[2-(2-chloro-3-fluorophenyl)acetamido]pyridin-2-yl}-N-[4-(difluoromethoxy)phenyl]acetamide] | 99% | 579 nM
22 | CC(=O)N(c1ccc(OC(F)F)cc1)c1cc(NC(=O)Cc2c(Cl)cccc2Cl)ccn1 [Example 49, N-{4-[2-(2,6-dichlorophenyl)acetamido]pyridin-2-yl}-N-[4-(difluoromethoxy)phenyl]acetamide] | 100% | 520 nM
23 | CC(=O)N(c1ccc(Cl)c(F)c1)c1cc(NC(=O)Cc2c(Cl)cccc2Cl)ccn1 [Example 61, N-(4-chloro-3-fluorophenyl)-N-{4-[2-(2,6-dichlorophenyl)acetamido]pyridin-2-yl)acetamide] | 98% | 604 nM
24 | CCc1cc(Cl)c(CC(=O)Nc2ccnc(N(C(C)=O)c3ccc(F)c(F)c3)c2)c(Cl)c1 [Example 75, N-{4-[2-(2,6-dichloro-4-ethylphenyl)acetamido]pyridin-2-yl}-N-(3,4-difluorophenyl)acetamide] | 96% | 919 nM
25 | COc1ccc(N(C(C)=O)c2cc(NC(=O)Cc3ccc(F)cc3Cl)ccn2)cc1F [Example 78, N-{4-[2-(2-chloro-4-fluorophenyl)acetamido]pyridin-2-yl}-N-(3-fluoro-4-methoxyphenyl)acetamide] | 94% | 573 nM
26 | CC(=O)N(c1ccc(S(C)(=O)=O)c(F)c1)c1cc(NC(=O)Cc2cccc(F)c2Cl)ccn1 [Example 81, N-{4-[2-(2-chloro-3-fluorophenyl)acetamido]pyridin-2-yl}-N-[3-fluoro-4-(methanesulfonyl)phenyl]acetamide] | 97% | 895 nM
